Test systems include NCI-H460 lung; KM12 colon; OVCAR-3 ovarian; LOX IMVI melanoma; UO-31 renal; SK-MEL-5 melanoma; MDA-N; SR leukemia; RPMI-8226 leukemia; U251 CNS.
Assay in all cases: NCI anticancer screen, dose series, 48 h

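Results reflect a 48-hour exposure of cells in 96-well plates to compound at five concentrations. TGI denotes the concentration required for complete inhibition of growth.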 Where a SMILES comes first, the peptide text is derived from it. The star is where a group is joined. Boc = CC(C)(C)OC(=O)*; OBn = c1ccc(CO*)cc1

Consider `CCOC(=O)C(NC(=O)CC)(Nc1ccc(S(=O)(=O)Nc2onc(C)c2C)cc1)C(F)(F)F` (stereo not drawn), for which the TGI in the assay on NCI-H460 lung, with KM12 colon, in the assay on OVCAR-3 ovarian, in the assay with LOX IMVI melanoma, in the assay with UO-31 renal and with SK-MEL-5 melanoma was more than 100 µM in each case. The TGI in the assay with MDA-N, with SR leukemia, with RPMI-8226 leukemia and in the assay with U251 CNS was more than 100 µM in each case.

With `O=C(Sc1c(-c2ccccc2)c(=O)n(-c2ccccc2)c(=S)n1-c1ccccc1)c1cccs1`, the TGI in the assay on NCI-H460 lung is more than 100 µM; in the assay on KM12 colon it was more than 100 µM; in the assay with OVCAR-3 ovarian, more than 100 µM; in the assay with LOX IMVI melanoma, 61.2 µM; in the assay with UO-31 renal it was more than 100 µM; with SK-MEL-5 melanoma, 95.1 µM. Besides, the TGI in the assay with MDA-N, in the assay on SR leukemia, in the assay on RPMI-8226 leukemia and with U251 CNS was more than 100 µM throughout.

`COc1ccccc1N=Nc1c(O)c(S(=O)(=O)O)cc2cc(S(=O)(=O)O)ccc12`: the TGI in the assay with KM12 colon, in the assay with OVCAR-3 ovarian, with LOX IMVI melanoma, with UO-31 renal, in the assay on SK-MEL-5 melanoma and in the assay with MDA-N was more than 100 µM throughout. In addition, the TGI in the assay with SR leukemia, with RPMI-8226 leukemia and with U251 CNS was more than 100 µM each time.

Consider `O=C1CC(C(CC(=O)c2ccccc2)c2ccccc2)C(=O)c2ccccc2N1` (stereo not drawn), for which the TGI in the assay with NCI-H460 lung is more than 100 µM; in the assay on KM12 colon it was more than 100 µM; with OVCAR-3 ovarian, more than 100 µM; in the assay with LOX IMVI melanoma it was more than 100 µM; in the assay with UO-31 renal it was 40.4 µM; in the assay with SK-MEL-5 melanoma, more than 100 µM. Moreover, the TGI in the assay on MDA-N, in the assay with SR leukemia, in the assay on RPMI-8226 leukemia and in the assay on U251 CNS was more than 100 µM in each case.

Turning to `COC(=O)CCc1c(Cc2ccc[nH]2)[nH]c(C(=O)OCc2ccccc2)c1C`, the TGI with NCI-H460 lung was more than 100 µM; in the assay with KM12 colon, 35.7 µM; in the assay on OVCAR-3 ovarian, 31 µM; in the assay with LOX IMVI melanoma it was 35.1 µM; in the assay on SK-MEL-5 melanoma it was 29.2 µM; in the assay on MDA-N, 34.4 µM. The TGI in the assay with SR leukemia amounted to 66.5 µM; in the assay with RPMI-8226 leukemia, 76.5 µM; with U251 CNS it was 44.1 µM.

In the case of `CC(C)CC(NC(=O)OC(C)(C)C)C(=O)NC(CC(=O)OCc1ccccc1)C(=O)OCc1ccccc1` (stereo not drawn) (Boc-Leu-Asp(OBn)-OBn; configuration not given here), the TGI in the assay with NCI-H460 lung was more than 100 µM; in the assay on KM12 colon, more than 100 µM; in the assay with OVCAR-3 ovarian, 49.6 µM; with LOX IMVI melanoma it was 49.7 µM; with UO-31 renal it was 75 µM; with SK-MEL-5 melanoma, 57.3 µM. Moreover, the TGI in the assay with MDA-N is more than 100 µM; with SR leukemia, 63.8 µM; in the assay on RPMI-8226 leukemia it was 97.3 µM; in the assay on U251 CNS, 81.7 µM.

As to `Cc1ccc(-c2nnc(CCCCCCCCc3nnc(-c4ccc(C)cc4O)n3N)n2N)c(O)c1`, the TGI with NCI-H460 lung, with KM12 colon, in the assay with OVCAR-3 ovarian, in the assay on LOX IMVI melanoma, with UO-31 renal and with MDA-N was more than 100 µM each time. Further, the TGI in the assay with SR leukemia, with RPMI-8226 leukemia and with U251 CNS was more than 100 µM in each case.

Consider `CN(C)c1ccc(/C=C/C(=O)N[C@@H]2C(=O)N3[C@@H]2SC(C)(C)[C@@H]3C(=O)O)cc1`, for which the TGI with NCI-H460 lung, in the assay on KM12 colon, in the assay with OVCAR-3 ovarian, in the assay on LOX IMVI melanoma, with UO-31 renal and in the assay on SK-MEL-5 melanoma was more than 100 µM in each case. Besides, the TGI in the assay on MDA-N, in the assay with SR leukemia, with RPMI-8226 leukemia and with U251 CNS was more than 100 µM each time.

Turning to `CC12CCCCC1=[N+]([O-])C(C)(C)N2O` (stereo not drawn), the TGI in the assay with NCI-H460 lung, in the assay with KM12 colon, in the assay with OVCAR-3 ovarian, in the assay with LOX IMVI melanoma, in the assay with UO-31 renal and in the assay with SK-MEL-5 melanoma was more than 100 µM throughout. For the same compound, the TGI in the assay with MDA-N, in the assay with SR leukemia, in the assay on RPMI-8226 leukemia and in the assay with U251 CNS was more than 100 µM each time.

For the compound `COC(=O)c1c(CC(Cc2ccc3c(c2)CCCC3)C(=O)OC)ccc2c1CCCC2` (stereo not drawn), the TGI in the assay with NCI-H460 lung, in the assay on KM12 colon, in the assay with OVCAR-3 ovarian, in the assay on LOX IMVI melanoma, in the assay on UO-31 renal and in the assay on SK-MEL-5 melanoma was more than 100 µM each time. For the same compound, the TGI in the assay with MDA-N is more than 100 µM; with SR leukemia it was 86.7 µM; with RPMI-8226 leukemia, more than 100 µM; in the assay with U251 CNS it was more than 100 µM.

As for `O=C(O)CC[P+](c1ccccc1)(c1ccccc1)c1ccccc1`, the TGI was more than 100 µM in the assay with KM12 colon; 56.5 µM in the assay on OVCAR-3 ovarian; more than 100 µM with LOX IMVI melanoma; more than 100 µM in the assay with UO-31 renal; 42.2 µM with SK-MEL-5 melanoma; more than 100 µM in the assay on MDA-N. Besides, the TGI in the assay on SR leukemia was more than 100 µM; with RPMI-8226 leukemia it was 19.9 µM; in the assay with U251 CNS it was more than 100 µM.

In the case of `Cc1nnc2n(c1=O)CCN2C`, the TGI in the assay with NCI-H460 lung, in the assay with KM12 colon, with OVCAR-3 ovarian, with LOX IMVI melanoma, in the assay with UO-31 renal and in the assay with SK-MEL-5 melanoma was more than 100 µM each time. Further, the TGI in the assay with MDA-N, with SR leukemia, with RPMI-8226 leukemia and in the assay with U251 CNS was more than 100 µM each time.

`CCOC(=O)NNC(=O)NCc1ccccc1CNC(=O)NNC(=O)OCC`: the TGI in the assay with NCI-H460 lung, in the assay with KM12 colon, in the assay with OVCAR-3 ovarian, in the assay with LOX IMVI melanoma, in the assay with UO-31 renal and in the assay on SK-MEL-5 melanoma was more than 100 µM in each case. The TGI in the assay on MDA-N, in the assay with SR leukemia, in the assay on RPMI-8226 leukemia and in the assay with U251 CNS was more than 100 µM each time.

As for `O=C1C=C2CCC[C@H]3OC(=O)C[C@@]23CC1`, the TGI in the assay on NCI-H460 lung, in the assay on KM12 colon, in the assay on OVCAR-3 ovarian, in the assay on LOX IMVI melanoma, in the assay on SK-MEL-5 melanoma and with MDA-N was more than 100 µM each time. Moreover, the TGI in the assay with SR leukemia, with RPMI-8226 leukemia and with U251 CNS was more than 100 µM in each case.

`Cn1c([C@H](C#N)C(=O)c2cc(O)ccc2[N+](=O)[O-])nc2ccccc21`: the TGI in the assay on NCI-H460 lung, in the assay with KM12 colon, in the assay with OVCAR-3 ovarian, in the assay on LOX IMVI melanoma, with UO-31 renal and with SK-MEL-5 melanoma was more than 100 µM each time. Further, the TGI with MDA-N, with SR leukemia, in the assay on RPMI-8226 leukemia and in the assay with U251 CNS was more than 100 µM throughout.

As to `Nc1ccc(Nc2cc(=O)[nH]c(=O)[nH]2)cc1`, the TGI in the assay on NCI-H460 lung, with KM12 colon, with OVCAR-3 ovarian, with LOX IMVI melanoma, in the assay on SK-MEL-5 melanoma and with MDA-N was more than 100 µM throughout. For the same compound, the TGI with SR leukemia, with RPMI-8226 leukemia and in the assay with U251 CNS was more than 100 µM each time.

With `COC(=O)C1=C(O)C(C(=O)OC)[C@]2(O)[C@@H](C(=O)OC)[C@H]1C[C@@H](c1ccccc1)[C@@H]2C(=O)OC` (stereo partly drawn), the TGI stood at 37.8 µM with NCI-H460 lung; 25.8 µM in the assay with KM12 colon; 31.8 µM with OVCAR-3 ovarian; 39.3 µM with LOX IMVI melanoma; 26.6 µM in the assay with UO-31 renal; 19.1 µM in the assay with MDA-N. Besides, the TGI with SR leukemia was 24.1 µM; in the assay on RPMI-8226 leukemia it was 31.7 µM; in the assay on U251 CNS, 30.7 µM.

Consider `Cc1ccc(NC2=NCCO2)c2c1CCC2`, for which the TGI in the assay on NCI-H460 lung is more than 100 µM; in the assay on KM12 colon it was 63.9 µM; in the assay with OVCAR-3 ovarian it was 67.9 µM; in the assay with LOX IMVI melanoma, 76 µM; in the assay with UO-31 renal, more than 100 µM; with SK-MEL-5 melanoma it was 32.9 µM. Besides, the TGI was 38.5 µM with MDA-N, 53.3 µM with SR leukemia, more than 100 µM with RPMI-8226 leukemia and more than 100 µM with U251 CNS.

As for `Cc1c(OCc2ccccc2)c(=O)ccn1CCc1c[nH]c2ccccc12`, the TGI was more than 100 µM with NCI-H460 lung; more than 100 µM in the assay with KM12 colon; 51.4 µM with OVCAR-3 ovarian; more than 100 µM in the assay on LOX IMVI melanoma; more than 100 µM with UO-31 renal; 35.3 µM in the assay with SK-MEL-5 melanoma. The TGI was 79.9 µM in the assay on MDA-N, 79.7 µM in the assay with SR leukemia, 59.3 µM in the assay with RPMI-8226 leukemia and more than 100 µM in the assay with U251 CNS.

In the case of `COc1ccc(C2OCCN2C)cc1` (stereo not drawn), the TGI in the assay on NCI-H460 lung, in the assay on KM12 colon, in the assay with OVCAR-3 ovarian, with LOX IMVI melanoma, in the assay with UO-31 renal and in the assay on SK-MEL-5 melanoma was more than 100 µM in each case. Also, the TGI in the assay with MDA-N, with SR leukemia, with RPMI-8226 leukemia and with U251 CNS was more than 100 µM each time.

The values above are taken from PubChem BioAssay (NCI).
